Reference: paper PMC12723162, “Alphaherpesvirus pUL21 homologs use non-canonical sequences to compete with cellular adaptors for protein phosphatase 1 binding” (The Journal of Biological Chemistry, 2025)
Where two headings read alike, the source gives them in different places.

Key:
[1] = target: T1, PP1γ catalytic domain : GADD34 peptide pre-formed complex (Mus musculus, UniProt P63087); test: Competition fluorescence anisotropy, displacement of FITC-GADD34 peptide from PP1γ (HEPES pH 8.0); assay type: binding; conditions: 2 nM fluorescent GADD34 peptide + 250 nM PP1γ; for Displacement of GADD34 peptide from PP1 by TROPPO peptides: competitor at over 1000-fold molar excess, HEPES pH 8.0, 500 mM NaCl, 0.05% TWEEN-20, 27 °C
T1 construct: mouse PP1γ catalytic domain (residues 7–300)-H6; His6 (C); made in house; host or cells: E. coli T7 Express lysY/Iq (PP1γ); tracer peptide synthesised by GenScript
T1 sequence (P63087 7-300, one chain of several): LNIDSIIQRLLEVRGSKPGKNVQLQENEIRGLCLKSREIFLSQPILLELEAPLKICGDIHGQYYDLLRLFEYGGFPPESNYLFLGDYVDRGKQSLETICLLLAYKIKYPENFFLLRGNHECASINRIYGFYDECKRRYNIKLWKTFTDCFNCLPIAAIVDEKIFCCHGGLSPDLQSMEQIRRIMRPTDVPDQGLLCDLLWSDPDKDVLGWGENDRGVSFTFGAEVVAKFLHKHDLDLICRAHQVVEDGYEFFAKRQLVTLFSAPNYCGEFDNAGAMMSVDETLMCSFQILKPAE
Description: (§1) Bacterial expression plasmids encoding the mouse PP1γ catalytic domain (residues 7–300)-H6 and pUL21-H6, and mammalian expression vectors encoding pUL21(FV242AA)-GFP, pORF38-GFP and pORF38(FV255AA)-GFP, were described previously ([23]). We note that the mouse and human PP1γ catalytic domains share 100% amino acid identity. pORF38-NLT-H6 was generated by sub-cloning residues 1 to 263 of ORF38 into the vector pOPTnH ([52]). pUL21-RVxF-H6 was generated by inserting the mutations A237V and V239F into pUL21-H6 by QuikChange site-directed mutagenesis. Human PP1α was cloned from HeLa cell cDNA into a vector derived from pF5K (Promega) with an N-terminal Myc epitope tag via restriction-based cloning, and point mutations were introduced into Myc-PP1α by QuikChange mutagenesis. A plasmid encoding pUL21-GFP was generated by sub-cloning a codon-optimized synthetic UL21 gene (GeneArt) into pEGFP-N1 (Clontech), yielding an identical pUL21-GFP amino acid sequence as used in ([23]). pUL21-ΔL, -ΔR and -ΔLR were generated from this vector via inverse PCR, and point mutations were introduced via QuikChange mutagenesis.
Peptides were commercially synthesised to >95% purity (GenScript) as follows: GADD34 RVxF+ϕϕ[xF] […]
Proteins were expressed using E. coli T7 Express lysY/I^q cells (New England Biolabs) grown in 2 × TY medium at 37 °C to OD600 0.8 to 1.2 before cooling to 22 °C and induction of protein expression using 0.4 mM IPTG. […] Fractions were analysed by SDS-PAGE and those containing the desired protein were pooled, concentrated using centrifugal concentrators (Millipore) and stored at 4 °C (short-term) or snap-frozen in liquid nitrogen for long-term storage at −70 °C.
Fluorescence anisotropy was measured using a SpectraMax i3 microplate reader (Molecular Devices) with wavelengths 485 ± 20 nm (excitation) and 535 ± 25 nm (emission). Samples (100 μl per well) were dispensed into low-bind black half-area 96-well microtitre plates (Corning) and fluorescence anisotropy was recorded at 27 °C. […]

[2] = target: T2, PP1γ catalytic domain (7–300), C-terminally His6-tagged (Mus musculus, UniProt P63087); test: Isothermal titration calorimetry (ITC); assay type: binding; design: key to KD / ∆H / ∆G / -T∆S / N (sites): –: no binding detected; conditions: for ITC heats of TROPPO peptides against PP1 catalytic domain: 500–1000 μM peptide titrated, 50 mM HEPES pH 8.0, 500 mM NaCl
T2 construct: mouse PP1γ catalytic domain (residues 7–300)-H6; made in house; host or cells: E. coli T7 Express lysY/Iq
T2 sequence (P63087 7-300): as the sequence (P63087 7-300, one chain of several) above
Description: as §1
Proteins were expressed using E. coli T7 Express lysY/I^q cells (New England Biolabs) grown in 2 × TY medium at 37 °C to OD600 0.8 to 1.2 before cooling to 22 °C and induction of protein expression using 0.4 mM IPTG. Cells were harvested at 16 to 20 h post-induction and pellets stored at −70 °C until required. Cells were resuspended in chilled lysis buffer (20 mM Tris pH 7.5, 20 mM imidazole, 500 mM NaCl, 1.4 mM β-mercaptoethanol 0.5 mM MgCl2 and 0.05% TWEEN-20 [plus 1 mM MnCl2 for PP1]) that was supplemented with 200 μl EDTA-free protease inhibitor cocktail (Merck) and 400 U bovine DNase I (Merck). Cells were lysed using a TS series cell disruptor (Constant Systems) at 24 kpsi and lysates were clarified (40,000×g, 30 min, 4 °C) before incubation with Ni-NTA agarose (Qiagen) for 1 h at 4 °C. The resin was washed with ≥20 column volumes of wash buffer (20 mM Tris, 20 mM imidazole and 500 mM NaCl [plus 1 mM MnCl2 for PP1]) at pH 7.5 (PP1γ and pORF38-NLT) or pH 8.5 (pUL21 and pUL21-RVxF). Protein was eluted using wash buffer supplemented with additional imidazole (final concentration 250 mM) and proteins were subjected to size-exclusions chromatography using HiLoad 16/600 Superdex 75 (PP1) or Superdex 200 (other) columns equilibrated in 20 mM Tris pH 8.5, 500 mM NaCl, 1 mM DTT (for pUL21 and pUL21-RVxF) or 50 mM HEPES pH 8.0, 500 mM NaCl, 0.5 mM TCEP (for PP1 and pORF38-NLT). Fractions were analysed by SDS-PAGE and those containing the desired protein were pooled, concentrated using centrifugal concentrators (Millipore) and stored at 4 °C (short-term) or snap-frozen in liquid nitrogen for long-term storage at −70 °C.
ITC experiments were performed using a MicroCal PEAQ-ITC automated calorimeter (Malvern Panalytical). The solvent (ITC buffer) was 50 mM HEPES pH 8.0, 500 mM NaCl, 0.5 mM TCEP. Lyophilized peptides were dissolved into ITC buffer and their concentration was estimated from dry mass. Proteins were diluted in ITC buffer, and their concentration was estimated from the theoretical extinction coefficient at 280 nm ([53]). […] Data were analyzed using MicroCal PEAQ-ITC analysis software (Malvern Panalytical) and fitted using a one-site binding model.
Table S1. Isothermal titration calorimetry (ITC) of PP1 with TROPPO-containing peptides and proteins. Data for independent experiments are shown. For all, the cell contained C-terminally His6-tagged mouse PP1γ (7–300). –, no binding detected.

[3] = TROPPO peptide, independent experiment 3, syringe/cell µM: pORF38 500/16.0
[4] = TROPPO peptides, independent experiment 1, syringe/cell µM: pUL21 1000/58.8, pORF38 1000/79.6
[5] = TROPPO peptides, independent experiment 1, syringe/cell µM: pUL21 1000/58.8, pORF38 1000/79.6, HEPES pH 8.0, 25 °C
[6] = TROPPO peptides, independent experiment 2, syringe/cell µM: pUL21 1000/54.5, pORF38 500/17.0
[7] = TROPPO peptides, independent experiment 2, syringe/cell µM: pUL21 1000/54.5, pORF38 500/17.0, HEPES pH 8.0, 25 °C
[8] = independent experiment 1, 240 µM titrant, 17.0 µM PP1, HEPES pH 8.0, 25 °C
[9] = independent experiment 2, 147 µM titrant, 10.0 µM PP1, HEPES pH 8.0, 25 °C
[10] = independent experiment 3, 153 µM titrant, 9.5 µM PP1, HEPES pH 8.0, 25 °C

In the case of “KSDHITLSNFVQIRTIPR [pORF38 TROPPO, pORF38 TROPPO peptide (residues 246–263)]”, the “Displacement of GADD34 peptide from PP1 by TROPPO peptides” value [1] is reported as “Neither TROPPO-containing peptide was able to displace the GADD34 peptide”, the “ITC heats of TROPPO peptides against PP1 catalytic domain” value ([2]; 0.5 mM TCEP, 25 °C) is reported as “did not evolve heats above background levels” and the “-T∆S” value [2, 3] is reported as “–”. For the same molecule, the “N (sites)” value [2, 3] was “–”, the “∆G” value [2, 3] was “–” and the “∆H” value [2, 3] was “–”. For the same molecule, the KD ([2]; TROPPO peptide, independent experiment 3, syringe/cell µM: pORF38 500/16.0, HEPES pH 8.0, 25 °C) was “–”, the “-T∆S” value [2, 4] was “–” and the “N (sites)” value [2, 4] was “–”. For the same molecule, the “∆G” value [2, 4] was “–”, the “∆H” value [2, 4] was “–” and the KD [2, 5] was “–”. The “-T∆S” value [2, 6] was “–”, the “N (sites)” value [2, 6] was “–” and the “∆G” value [2, 6] was “–”. For the same molecule, the “∆H” value [2, 6] was “–” and the KD [2, 7] was “–”.

“AKRATVSEFVQVKHIDR [pUL21 TROPPO, pUL21 TROPPO peptide (residues 234–250)]” was tested, and the “Displacement of GADD34 peptide from PP1 by TROPPO peptides” value [1] was “Neither TROPPO-containing peptide was able to displace the GADD34 peptide”, the “ITC heats of TROPPO peptides against PP1 catalytic domain” value ([2]; 0.5 mM TCEP, 25 °C) was “did not evolve heats above background levels” and the “-T∆S” value [2, 4] was “–”. The “N (sites)” value [2, 4] was “–”, the “∆G” value [2, 4] was “–” and the “∆H” value [2, 4] was “–”. For the same molecule, the KD [2, 5] was “–”, the “-T∆S” value [2, 6] was “–” and the “N (sites)” value [2, 6] was “–”. The “∆G” value [2, 6] was “–”, the “∆H” value [2, 6] was “–” and the KD [2, 7] was “–”.

B1: pORF38-NLT: VZV pORF38 N-terminal domain plus Linker region up to the end of the TROPPO motif (residues 1 to 263) (protein)
chain: MEFPYHSTVSYNGVTFYFNERATRAYFICGGCLISIPRKHGGEIAKFGHVVRGVGPGDRSVASYVRSELNRTGKTWAVSSNNNCVFLDRVALLAAGSGAVDRDLCGTFDVEVEDPTLADYLVSLPVTHLTLVAGVDVTRENKLKLFPTPTAINTTNGFMYVPNEASFSLVYMRMLELPESLQELVSGLFDGTPEIRDALNGSNDDEKTSIIVSRRAADVVTEDVKADDVPISGEPYSEKQPRRRKKSDHITLSNFVQIRTIPR
modifications: left off: His6, C-terminal, kept
For B1, the “Competition with RVxF peptide for PP1 binding” value ([1]; increasing concentrations of pORF38-NLT, HEPES pH 8.0) was “competes with the RVxF peptide for PP1 binding”, the “ΔH, mean” value ([2]; 25 °C, HEPES pH 8.0, average of three independent experiments) was -13.3 kcal/mol and the Kd ([2]; independent experiment 1, 240 µM titrant in syringe, 17.0 µM PP1 in cell, HEPES pH 8.0, 25 °C, read-out: KD) was 719 nM. The “-T∆S” value [2, 8] was 4.76 kcal/mol, the “N (sites)” value [2, 8] was 1.21 sites and the “∆G” value [2, 8] was -8.38 kcal/mol. The “∆H” value [2, 8] was -13.1 kcal/mol, the Kd ([2]; independent experiment 2, 147 µM titrant in syringe, 10.0 µM PP1 in cell, HEPES pH 8.0, 25 °C, read-out: KD) was 540 nM and the “-T∆S” value [2, 9] was 4.72 kcal/mol. The “N (sites)” value [2, 9] was 0.965 sites, the “∆G” value [2, 9] was -8.55 kcal/mol and the “∆H” value [2, 9] was -13.3 kcal/mol. The Kd ([2]; independent experiment 3, 153 µM titrant in syringe, 9.5 µM PP1 in cell, HEPES pH 8.0, 25 °C, read-out: KD) was 231 nM, the “-T∆S” value [2, 10] was 4.5 kcal/mol and the “N (sites)” value [2, 10] was 0.838 sites. The “∆G” value [2, 10] was -9.06 kcal/mol, the “∆H” value [2, 10] was -13.6 kcal/mol and the “PP1 binding compared with GADD34 peptide” value ([2]; pORF38-NLT ITC versus GADD34 peptide by fluorescence anisotropy or ITC) was “substantially weaker binding than observed for the GADD34 peptide”. It also gave a Kd ([2]; pORF38-NLT titrated into PP1, HEPES pH 8.0, 500 mM NaCl, 0.5 mM TCEP, 25 °C, one-site model, mean ± SEM, three independent experiments, listed as pOPF38-NLT, read-out: Affinity (KD), mean) of about 500 nM.
